Legend:
[1] = Optical characteristics (absorption and fluorescence maxima, quantum yield) in 0.1 M phosphate buffer with 1% DMSO; assay type: physicochemical; conditions: for λmax,fl (nm) / Φfl (fluorescence quantum yield): 0.1 M phosphate buffer (pH 9); for Φfl (fluorescence quantum yield): standard 2-Me TM (0.42); for λmax,abs (nm) pH 9: pH 9, 0.1 M phosphate buffer
Experimental: (§1) The measurement was performed in a 0.1 M phosphate buffer (pH 9) containing 1% dimethyl sulfoxide (DMSO). pKa was obtained from the absorbance meaured in a phosphate buffer (pH 9) by single-phase or two-phase curve fitting.

[2] = 2-Me TokyoMagenta in 0.1 M phosphate buffer (pH 9); compound of WO2012/099218; cited from earlier work
[3] = pKa from absorbance in phosphate buffer by single-phase or two-phase curve fitting; conditions: single value given
Experimental: as §1

[4] = Optical characteristics of diCl-2-COOH TM-monoβGal in 0.1 M phosphate buffer; assay type: physicochemical
Experimental: The quantum yield was calculated by using the quantum yield (0.85) of fluorescein in 0.1M aqueous sodium hydroxide as the standard.

[5] = Estimate of open-ring ratio by comparison with the absorption spectrum of TM-βGal; assay type: physicochemical; conditions: pH of physiological conditions; 10 μM in 0.1 M sodium phosphate buffer, 1.0% DMSO; versus TM-βGal
Experimental: In order to estimate the open-ring ratio of diCl-2-COOH TM-monoβGal, comparison with the absorption spectrum of TM-βGal was performed. […] The measurement was performed by using 10 μM diCl-2-COOH TM-monoβGal in a 0.1 M sodium phosphate buffer of various pH values containing 1.0% DMSO. The excitation wavelength was 450 nm for TMβGal (compound described in International Patent Publication WO2012/099218), or 460 nm for diCl-2-COOH TM-monoβGal.

HEK293 cells = experiment: Imaging of β-galactosidase in live HEK293 cells (lacZ+ / lacZ−), intracellular uptake; assay type: cell-based; conditions: 10 μM, 37° C., 30 minutes, DMEM with 0.1% DMSO, confocal microscope
Experimental: For the HEK293 cells in which the lacZ gene encoding β-galactosidase was stably expressed (lacZ+), and the HEK293 cells into which the lacZ gene was not introduced (lacZ−) as a control, β-galactosidase in the cells was measured by using diCl-2-COOH TM-monoβGal or diCl-2-COOH TM-diβGal. The HEK293 cells (lacZ−) were incubated at 37° C. for 30 minutes in the Dulbecco's Modified Eagle's medium (DMEM) containing 0.1% DMSO together with 10 μM diCl-2-COOH TM-monoβGal or diCl-2-COOH TM-diβGal. […] The results are shown in FIG. 19 (diCl-2-COOH TM-monoβGal) and FIG. 20 (diCl-2COOHTM-diβGal).

Experimental for physchem: as §1

## C[Si]1(C)C2=C(Cl)C(=O)C=CC2=C(c2ccccc2C(=O)O)c2ccc(O)c(Cl)c21 [2-COOH DCTM, 4′,5′-Dichloro-2-COOH TokyoMagenta]
[1]
  λmax,fl (nm): 607 nm
  Φfl (fluorescence quantum yield): 0.48
  λmax,abs (nm) pH 9: 591 nm

## C[Si]1(C)C2=CC(=O)C=CC2=C(c2ccccc2C(=O)O)c2ccc(O)cc21 [2-COOH TM]
[1]
  λmax,fl (nm): 598 nm
  Φfl (fluorescence quantum yield): 0.38
  λmax,abs (nm) pH 9: 582 nm
physchem; pKa (first of two printed values)
  pKa: 8.3
physchem; pKa (second of two printed values)
  pKa: 7.6

## Cc1ccccc1C1=C2C=CC(=O)C=C2[Si](C)(C)c2cc(O)ccc21 [2-Me TM, 2-Me TokyoMagenta]
[2]
  Φfl (quantum yield used as the standard): 0.42
[1]
  λmax,fl (nm): 598 nm
  λmax,abs (nm) pH 9: 582 nm
[1]; pH 3, 0.1 M phosphate buffer
  λmax,abs (nm) pH 3: 472 nm
[3]
  pKa: 6.8

## C[Si]1(C)C2=C(Cl)C(=O)C=CC2=C(c2ccccc2C(=O)O)c2ccc(O[C@@H]3O[C@H](CO)[C@H](O)[C@H](O)[C@H]3O)c(Cl)c21 [diCl-2-COOH TM-monoβGal, 4′,5′-Dichloro-2-COOH TokyoMagenta mono-β-D-galactopyranoside]
[4]
  Absorption λmax [nm]: 460 nm
  Fluorescence λmax [nm]: 555 nm
[4]; pH 7.4
  Extinction Coefficient ε [M^−1cm^−1]: 1,200 (pH 7.4) M^−1cm^−1
[4]; pH 7.4, standard fluorescein (0.85)
  Quantum yield Φfl: 0.09 (pH 7.4)
[5]
  Part having the ring-closed structure, which does not show absorption: more than 95%
HEK293 cells
  Intracellular uptaking amount compared with diCl-2-COOH TM-diβGal: larger

From US9250232B2, “Fluorescent probe” (THE UNIVERSITY OF TOKYO, priority 2012, dated 2016)
